Experimental data published in ChEMBL document CHEMBL1153213, “Inhibition of CTP synthase from Escherichia coli by xanthines and uric acids” (Bioorg Med Chem Lett, 2010).
Activity calls are given as the source filed them. The calls are words filed in the database; no cut-off is given here.

Columns and labels:
[1] = Inhibition of Escherichia coli recombinant N-terminal hexahistidine-tagged CTP synthetase expressed in Escherichia coli BL21 (DE3) assessed as inhibition of CTP formation by continuous spectrophotometric assay in presence of 150 mM NH4Cl
[2] = Inhibition of Escherichia coli recombinant N-terminal hexahistidine-tagged CTP synthetase expressed in Escherichia coli BL21 (DE3) assessed as inhibition of CTP formation by continuous spectrophotometric assay in presence of 10 mM L-glutamine and 0.15 mM GTP
[3] = Inhibition of Escherichia coli recombinant N-terminal hexahistidine-tagged CTP synthetase expressed in Escherichia coli BL21 (DE3) assessed as inhibition of CTP formation in Hepes buffer at pH 8 by continuous spectrophotometric assay in presence of 150 mM NH4Cl
[4] = Inhibition of Escherichia coli recombinant N-terminal hexahistidine-tagged CTP synthetase expressed in Escherichia coli BL21 (DE3) assessed as inhibition of CTP formation in TAPS buffer at pH 8.5 by continuous spectrophotometric assay in presence of 150 mM NH4Cl
[5] = Inhibition of Escherichia coli recombinant N-terminal hexahistidine-tagged CTP synthetase expressed in Escherichia coli BL21 (DE3) assessed as inhibition of CTP formation in Hepes buffer at pH 8 by continuous spectrophotometric assay in presence of 10 mM L-glutamine and 0.15 mM GTP
[6] = Inhibition of Escherichia coli recombinant N-terminal hexahistidine-tagged CTP synthetase expressed in Escherichia coli BL21 (DE3) assessed as inhibition of CTP formation in TAPS buffer at pH 8.5 by continuous spectrophotometric assay in presence of 10 mM L-glutamine and 0.15 mM GTP
Escherichia coli [7] = assay: Inhibition of Escherichia coli recombinant N-terminal hexahistidine-tagged CTP synthetase expressed in Escherichia coli BL21 (DE3) assessed as inhibition of CTP formation at 1 mM in presence of 1mM ATP
Escherichia coli [8] = assay: Inhibition of Escherichia coli recombinant N-terminal hexahistidine-tagged CTP synthetase expressed in Escherichia coli BL21 (DE3) assessed as inhibition of CTP formation at 1 mM in presence of 1mM UTP
[9] = Multisite inhibition of Escherichia coli recombinant N-terminal hexahistidine-tagged CTP synthetase expressed in Escherichia coli BL21 (DE3) assessed as inhibition of CTP formation in Hepes buffer at pH 8 in presence of 8.16 mM NH4Cl
[10] = Multisite inhibition of Escherichia coli recombinant N-terminal hexahistidine-tagged CTP synthetase expressed in Escherichia coli BL21 (DE3) assessed as inhibition of CTP formation in Hepes buffer at pH 8 in presence of 5.44 mM NH4Cl
[11] = Multisite inhibition of Escherichia coli recombinant N-terminal hexahistidine-tagged CTP synthetase expressed in Escherichia coli BL21 (DE3) assessed as inhibition of CTP formation in Hepes buffer at pH 8 in presence of 2.72 mM NH4Cl
[12] = Multisite inhibition of Escherichia coli recombinant N-terminal hexahistidine-tagged CTP synthetase expressed in Escherichia coli BL21 (DE3) assessed as inhibition of CTP formation in Hepes buffer at pH 8 in presence of 1.36 mM NH4Cl
[13] = Multisite inhibition of Escherichia coli recombinant N-terminal hexahistidine-tagged CTP synthetase expressed in Escherichia coli BL21 (DE3) assessed as inhibition of CTP formation in Hepes buffer at pH 8 in presence of 0.54 mM NH4Cl

Row | SMILES | IC50 ([1]; read-out: IC50) | IC50 ([2]; read-out: IC50) | IC50 [3] | IC50 [4] | IC50 [5] | IC50 [6] | also measured
1 | Cn1c(=O)c2c(n(C)c1=O)n(C)c(=O)n2C | 121 µM | 79 µM | – | – | – | – | –
2 | Cn1c(=O)[nH]c(=O)c2c1[nH]c(=O)n2C | 90 µM | 63 µM | – | – | – | – | inhibition (Escherichia coli [7]): inactive; inhibition (Escherichia coli [8]): inactive
3 | Cn1c(=O)c2[nH]c(=O)[nH]c2n(C)c1=O | – | – | 72 µM | 99 µM | 88 µM | 64 µM | –
4 | Cn1c(=O)c2c([nH]c(=O)n2C)n(C)c1=O | 70 µM | 67 µM | – | – | – | – | –
5 | O=C(O)Cc1cc(=O)[nH]c(=O)[nH]1 | 3170 µM | 2600 µM | – | – | – | – | –
6 | Cn1c(=O)[nH]c2[nH]c(=O)n(C)c2c1=O | – | – | 119 µM | 109 µM | 113 µM | 61 µM | –
7 | Nc1ncnc2c1ncn2[C@@H]1O[C@H](CO)[C@@H](O)[C@H]1O [ADENOSINE] | 11000 µM | – | – | – | – | – | –
8 | Nc1[nH]cnc2ncnc1-2 [ADENINE] | 12900 µM | 15800 µM | – | – | – | – | –
9 | Cn1c(=O)c2nc[nH]c2n(C)c1=O [THEOPHYLLINE] | – | – | 550 µM | 400 µM | 430 µM | 300 µM | –
10 | Cn1c(=O)[nH]c2[nH]c(=O)[nH]c2c1=O | 96 µM | 101 µM | – | – | – | – | –
11 | NC(=O)NC1NC(=O)NC1=O (stereo unspecified) [ALLANTOIN] | – | – | – | – | – | – | IC50 [1]: Not Active; IC50 [2]: Not Active

More lines, main results first:

Row | IC50 ([1]; read-out: IC50) | IC50 ([2]; read-out: IC50) | IC50 [3] | IC50 [4] | IC50 [5] | IC50 [6] | SMILES | also measured
12 | – | – | 87 µM | 113 µM | 60 µM | 60 µM | Oc1nc(O)c2nc(O)[nH]c2n1 [URIC ACID] | –
13 | 510 µM | 390 µM | – | – | – | – | Cn1c(=O)c2c(ncn2C)n(C)c1=O [CAFFEINE] | IC50 [9]: 440 µM; IC50 [10]: 450 µM; IC50 [11]: 420 µM; IC50 [12]: 450 µM; IC50 [13]: 440 µM; inhibition (Escherichia coli [7]): inactive; inhibition (Escherichia coli [8]): inactive
14 | 580 µM | 420 µM | – | – | – | – | Cn1cnc2c1c(=O)[nH]c(=O)n2C [THEOBROMINE] | –
15 | 4700 µM | 4200 µM | – | – | – | – | O=c1cc[nH]c(=O)[nH]1 [URACIL] | –
16 | – | – | 370 µM | 220 µM | 230 µM | 160 µM | O=c1[nH]c(=O)c2nc[nH]c2[nH]1 [XANTHINE] | –
17 | 4600 µM | 3100 µM | – | – | – | – | O=c1ccn([C@@H]2O[C@H](CO)[C@@H](O)[C@H]2O)c(=O)[nH]1 [URIDINE] | –
18 | – | – | 480 µM | 360 µM | 440 µM | 200 µM | Cn1c(=O)[nH]c2ncn(C)c2c1=O [PARAXANTHINE] | –
